The record followed here is patent publication US9689043B2 (CHUNGBUK NATIONAL UNIVERSITY INDUSTRY—ACADEMIC COOPERATION …, priority 2012, dated 2017).

In this assay the test system is T24 human bladder cancer cells. Briefly: Cell viability assay (MTS) in transfected T24 cells incubated with drugs. Format: cell-based. As to the method:
T24 human bladder cancer cells were purchased from American Type Culture Collection (ATCC, Manassas, Va.) and maintained in RPMI1640 media (Invitrogen, Carlsbad, Calif.) with 10% FBS and 1% Penicillin/Streptomycin at 37° C. under 5% CO2. T24 cells at ˜80% confluence were transiently transfected with expressing constructs or small interfering RNAs (siRNAs) of EGFR and S100A9 using Lipofactamine 2000. For S100A9 overexpression, pCMV-Sports6-S100A9 and vector constructs were kindly provided by Dr. A. Moon (Duksung University, Korea). As transfection controls, empty (Ctrl) or NON-TARGET control siRNAs (siCtrl) were used.
Cell viability was determined using MTS reagents as instructed by the manufacturer's protocol (Promega Corporation, Madison, Wis.).

Regarding `COc1cc2ncnc(Nc3ccc(F)c(Cl)c3)c2cc1OCCCN1CCOCC1` [Iressa, gefitinib], for the setting “T24 cells, EGFR inhibition with Iressa (FIG. 6, line 2)”, the Cell viability entry is “significantly reduced viability”. Moreover, the Chemo-sensitivity to cisplatin entry reads like this: (T24 cells, EGFR inhibition with Iressa plus cisplatin (FIG. 6, line 2)) “enhanced chemo-sensitivity to cisplatin”; (T24 cells, Iressa combined with S100A9 silencing by siRNA, plus cisplatin (FIG. 6, line 4)) “synergistically enhanced chemo-sensitivity”.
For the molecule `N.N.[Cl][Pt][Cl]` [cisplatin], for the setting “EGFR overexpressing T24 cells, 10 μM cisplatin, serum free medium”, the “Cisplatin-induced apoptosis / viability” value is listed as “did not show significant apoptosis until 24 h-treatment”.
